In patent US20060062841A1, “Liposomal vectors” (priority 2004, published 2006):

How the values were obtained:
immune cells = settings: sublethally irradiated mice, intraperitoneal injection; cited from earlier work
TNF-α = test: Cytokine assay in the blood: TNF-α; type: in vivo, mouse
Protocol: FIG. 3A-C. Comparison the levels of TNF-α in blood (a), organs (b) and the blood levels of IL-12 and IFN-γ (c) after injection of the lipoplexes and safeplexes. The charge ratio of DOTA to DNA (+/−) (a) was varied from 0 to 12 and (b) and (c) was fixed at 6 to 1. The levels of cytokines were detected 2 h (a,b) or 6 h (c) after injection of the lipoplexes and safeplexes containing 25 μg pDNA. P<0.001 (three mice in each group).
FIG. 4A-B. Effect of (A) DEX dose and (B) time course on suppressing TNF-α. Mice were (three in each group) injected with the lipoplexes or safeplexes with (A) a varied ratio of DEX to DOTAP and (B) with a ratio of DEX to DOTAP of 1/10 (w/w). (a, b) The charge ratio of DOTAP to DNA was fixed at 6 to 1. P>0.5, P<0.001
FIG. 5. Inhibition of TNF-α production by other suppressors. The levels of TNF-α in the blood were analyzed 2 h after the injection of lipoplexes and safeplexes with a charge ratio of DNA to DOTAP of 1/6 (mol/mol). P<0.001 (n=3).
At indicated time points (2 h for TNF-α, 6 h for IL-12 and IFN-γ) following the injection of a tested sample containing 25 μg of pDNA, the blood and organs (the liver, lung and spleen) were collected. The blood was allowed to clot on ice for at least 4 h and then centrifuged at 3000 g for 20 min at 4° C., and serum was collected for the cytokine assay. For the organ assay, […] of each organ was added with 0.5 ml PBS buffer and homogenized for 20 s at the highest speed. The homogenates were frozen (in liquid nitrogen) and thawed (in 37° C. water bath) three times and then centrifuged at 14,000 g for 5 min. The supernatants were collected for the cytokine assay. The concentrations of cytokines (TNF-α, IL-12 and IFN-γ) were determined with mouse cytokine immunoassay kits (R&D System, Minneapolis, Minn.). Data were analyzed by the paired Student's t test using Excel. Data were considered statistically significant if P<0.01.

Row | Compound | effect on TNF-α production in blood (TNF-α; mouse, in vivo) | further results
1 | CN1C(=O)[C@]23CC4=CC=C[C@H](O)[C@H]4N2C(=O)[C@@]1(CO)SS3 [gliotoxin] |  | recovery of immune cells (immune cells): significant delay; effect on TNF-α production in blood (TNF-α; carried by safeplexes, inhibitor/DOTAP 1/6 mol/mol, 2 h after injection): showed the inhibitory effect
2 | COc1ccc2c(c1)c(CC(=O)O)c(C)n2C(=O)c1ccc(Cl)cc1 [indomethacin] | showed the inhibitory effect | 
3 | C[C@]12C=CC(=O)C=C1CC[C@@H]1[C@@H]2C(=O)C[C@@]2(C)[C@H]1CC[C@]2(O)C(=O)CO [prednisone] | showed the inhibitory effect | 
4 | COc1ccc2cc1Oc1ccc(cc1)C[C@H]1c3cc(c(OC)cc3CCN1C)Oc1c(OC)c(OC)cc3c1[C@H](C2)N(C)CC3 [tetrandrine] | showed the inhibitory effect | 
5 | Dexamethasone-Water Soluble [free DEX] |  | inhibition of TNF-α (TNF-α; 32 μg free DEX intravenously, immediately followed by DNA/DOTAP complexes): less than 45%
